Like-named read-outs stand apart in the source and are kept apart here.
Tests used:
hOATP1B1 = target: T1, hOATP1B1 (Homo sapiens, UniProt Q9Y6L6); assay: Inhibition of hOATP1B1-mediated 3H-estrone sulfate uptake, stably transfected 293 cells; format: cell-based; settings: substrate 0.01 μM 3H-estrone sulfate, median (95% CI)
T1 construct: expressed in transfected cells; host or cells: 293 cells (control: empty vector)
T1 sequence (Q9Y6L6 1-691): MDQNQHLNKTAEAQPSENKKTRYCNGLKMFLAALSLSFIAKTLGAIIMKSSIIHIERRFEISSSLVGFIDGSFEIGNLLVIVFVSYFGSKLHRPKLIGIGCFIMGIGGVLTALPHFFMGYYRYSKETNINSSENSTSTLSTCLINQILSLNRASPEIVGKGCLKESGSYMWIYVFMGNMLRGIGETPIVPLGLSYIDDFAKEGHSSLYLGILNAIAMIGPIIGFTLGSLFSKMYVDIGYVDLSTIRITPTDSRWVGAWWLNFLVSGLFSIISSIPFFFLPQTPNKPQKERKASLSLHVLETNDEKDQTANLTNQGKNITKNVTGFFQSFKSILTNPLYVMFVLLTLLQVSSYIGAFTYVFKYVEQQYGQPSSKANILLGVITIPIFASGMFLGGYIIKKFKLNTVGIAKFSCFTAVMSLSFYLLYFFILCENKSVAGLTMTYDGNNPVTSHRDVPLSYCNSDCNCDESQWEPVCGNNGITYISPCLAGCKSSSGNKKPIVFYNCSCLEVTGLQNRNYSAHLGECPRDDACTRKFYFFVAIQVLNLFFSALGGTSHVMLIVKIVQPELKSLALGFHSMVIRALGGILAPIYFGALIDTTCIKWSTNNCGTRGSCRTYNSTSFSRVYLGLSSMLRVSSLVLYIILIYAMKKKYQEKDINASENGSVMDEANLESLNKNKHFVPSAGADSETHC
Source text: We characterized the inhibitory potential of iohexol on major drug transporters recommended by regulatory agencies, which were previously assessed in a clinical transporter phenotyping cocktail study. These transporters include hOAT1, hOAT3, hOCT1, hOCT2, hMATE1, hMATE2K, human organic anion transporter polypeptides (hOATP)1B1, hOATP1B3, and human multidrug resistance protein (hMDR)1. Additionally, we investigated whether iohexol is a substrate for any of the renal transporters among these, including hOAT1/3, hOCT1/2, and hMATE1/2K. Cell‐based uptake assays were used to assess the activities of hOAT1/3, hOCT1/2, hMATE1/2K, and hOATP1B1/1B3. Inside‐out membrane vesicle uptake assays were used to evaluate the activity of hMDR1.
To determine the maximal inhibitory potential of iohexol, intracellular accumulation of a standard substrate was measured with and without the clinically relevant highest concentrations of iohexol. Control inhibitors were tested in each experiment.
In all subsequent in vitro studies, control experiments were conducted to validate the results. […] Each condition, including cells or vesicles with the transporter and their respective controls, was analyzed in at least three replicates. […]
Uptake assays were carried out with stably transfected 293 cells expressing hOATP1B1 or hOATP1B3, as well as cells containing an empty vector, using the method described by Hsin CH, et al..^1 For the inhibition assays, cells were incubated with the radiolabeled standard substrates specific to each transporter: 0.01 μM ^3H-estrone sulfate for hOATP1B1, and 0.02 μM ^3H-bromosulphophthalein (BSP) for hOATP1B3. […] The accumulation of radio-labelled probe substrates (^3H) in the cell lysate is determined using a Tri-Carb 2810 liquid scintillation counter (PerkinElmer, Waltham, MA, USA) as described previously.^1 Cellular protein amount was determined in parallel from 6 paired wells per cell line and experimental day, using the Bradford method.^2 The 1X lysis buffer (5X lysis buffer from Promega, diluted 1+4 [v/v] in ddH2O) was used as the lysis buffer. […]

[1] = Clinical trial in healthy volunteers, noncompartmental analysis of plasma and urine; format: in vivo, human; settings: for CL (plasma clearance, dose/AUC) / Ae0‐t (cumulative urinary excretion of unchanged iohexol) / Rmax (maximum observed excretion rate) / Vd / half-life / dose excreted / AUC: fasting, geomean (geoSD); for CL (plasma clearance, dose/AUC) / Vd / half-life / AUC: n=12, plasma; for Vd / half-life / dose excreted / AUC: human, iv; for Vd: read-out: Vz; for half-life: read-out: t1/2,λz (converted); for dose excreted: read-out: Recovery (percentage of dose recovered in urine)
[2] = Reference: 3235 mg i.v. bolus, urine, n=10
[3] = Test: 259 mg i.v. bolus, urine, n=10

- Inhibitory effect (% reduction of specific activity) (hOATP1B1; 20 mM iohexol): no notable inhibitory effects
- inhibition at 1 min, 2 mM (hOATP1B1; human, stably transfected 293 cells expressing hOATP1B1, probe 3H-estrone sulfate, 2 mM iohexol, read-out: Inhibitory effect (% reduction of specific activity)): -6.9%
- inhibition at 1 min, 20 mM (hOATP1B1; human, stably transfected 293 cells expressing hOATP1B1, probe 3H-estrone sulfate, 20 mM iohexol, read-out: Inhibitory effect (% reduction of specific activity)): 5.5%
- T/R ratio (90% CIs) of urinary recovery ([1]; 259 mg test vs 3235 mg reference, urine, n=10): 1.06 (0.960–1.17)
- CL (plasma clearance, dose/AUC) ([1]; Reference: 3235 mg i.v. bolus): 5.43 (1.19) L/h
- Ae0‐t (cumulative urinary excretion of unchanged iohexol) [1, 2]: 3364 (1.14) mg
- Rmax (maximum observed excretion rate) [1, 2]: 951 (1.12) mg/h
- CL (plasma clearance, dose/AUC) ([1]; Test: 259 mg i.v. bolus): 5.46 (1.15) L/h
- Ae0‐t (cumulative urinary excretion of unchanged iohexol) [1, 3]: 273 (1.09) mg
- Rmax (maximum observed excretion rate) [1, 3]: 73.7 (1.27) mg/h
- Vd ([1]; Reference: 3235 mg i.v. bolus): 32.4 L
- half-life ([1]; Reference: 3235 mg i.v. bolus): 4.14 h
- dose excreted [1, 2]: 103%
- Vd ([1]; Test: 259 mg i.v. bolus): 26.1 L
- half-life ([1]; Test: 259 mg i.v. bolus): 3.32 h
- dose excreted [1, 3]: 106%
- AUC ([1]; 259 mg, Test: 259 mg i.v. bolus, read-out: AUC0‐t): 46.5 µg·h/mL
- AUC ([1]; 259 mg, Test: 259 mg i.v. bolus, read-out: AUC0‐∞): 46.7 µg·h/mL
- AUC ([1]; 3235 mg, Reference: 3235 mg i.v. bolus, read-out: AUC0‐t): 598 µg·h/mL
- AUC ([1]; 3235 mg, Reference: 3235 mg i.v. bolus, read-out: AUC0‐∞): 600 µg·h/mL
- CVintra of CL ([1]; intraindividual coefficient of variation, test vs reference): 5.29%
SMILES: CC(=O)N(CC(O)CO)c1c(I)c(C(=O)NCC(O)CO)c(I)c(C(=O)NCC(O)CO)c1I (stereo not drawn) [iohexol]
